According to the NIST ThermoML archive (doi:10.1021/je0342163):
Numbers after ± are expanded uncertainties.

Experiment: wn = mass fraction of the nth substance listed

With `CC(F)(F)F` [1,1,1-trifluoroethane] + FCC(F)(F)F the surface tension liquid-gas (256.91 K, w1 = 0.7511) was 10.69 ± 0.18 mN/m, the surface tension liquid-gas (257.03 K, w1 = 0.263) was 12.6 ± 0.18 mN/m and the surface tension liquid-gas (257.14 K, w1 = 0.5656) was 11.49 ± 0.18 mN/m. For the same molecule, the surface tension liquid-gas (258.79 K, w1 = 0.7508) was 10.37 ± 0.18 mN/m, the surface tension liquid-gas (258.87 K, w1 = 0.2627) was 12.39 ± 0.18 mN/m and the surface tension liquid-gas (260.95 K, w1 = 0.565) was 10.86 ± 0.18 mN/m. For the same molecule, the surface tension liquid-gas (261 K, w1 = 0.7503) was 10.13 ± 0.18 mN/m, the surface tension liquid-gas (262.96 K, w1 = 0.75) was 9.8 ± 0.18 mN/m and the surface tension liquid-gas (263.05 K, w1 = 0.5646) was 10.49 ± 0.18 mN/m. The surface tension liquid-gas (264.97 K, w1 = 0.2618) was 11.46 ± 0.18 mN/m, the surface tension liquid-gas (264.97 K, w1 = 0.7496) was 9.615 ± 0.18 mN/m and the surface tension liquid-gas (265.07 K, w1 = 0.5643) was 10.39 ± 0.18 mN/m. For the same molecule, the surface tension liquid-gas (266.84 K, w1 = 0.564) was 10.02 ± 0.18 mN/m, the surface tension liquid-gas (267.09 K, w1 = 0.7491) was 9.245 ± 0.17 mN/m and the surface tension liquid-gas (268.62 K, w1 = 0.7488) was 9.17 ± 0.17 mN/m. For the same molecule, the surface tension liquid-gas (268.83 K, w1 = 0.2611) was 10.94 ± 0.18 mN/m, the surface tension liquid-gas (268.92 K, w1 = 0.5636) was 9.81 ± 0.18 mN/m and the surface tension liquid-gas (270.52 K, w1 = 0.5633) was 9.46 ± 0.17 mN/m. For the same molecule, the surface tension liquid-gas (270.6 K, w1 = 0.7484) was 8.84 ± 0.17 mN/m, the surface tension liquid-gas (271.15 K, w1 = 0.2607) was 10.62 ± 0.18 mN/m and the surface tension liquid-gas (273.07 K, w1 = 0.5628) was 9.14 ± 0.17 mN/m. The surface tension liquid-gas (273.2 K, w1 = 0.2604) was 10.39 ± 0.18 mN/m, the surface tension liquid-gas (273.23 K, w1 = 0.7478) was 8.49 ± 0.17 mN/m and the surface tension liquid-gas (274.99 K, w1 = 0.5625) was 8.825 ± 0.17 mN/m. For the same molecule, the surface tension liquid-gas (275.4 K, w1 = 0.7473) was 8.26 ± 0.17 mN/m, the surface tension liquid-gas (275.43 K, w1 = 0.26) was 10.06 ± 0.18 mN/m and the surface tension liquid-gas (277.04 K, w1 = 0.2597) was 9.845 ± 0.18 mN/m. It also gave a surface tension liquid-gas (277.27 K, w1 = 0.562) of 8.575 ± 0.17 mN/m, a surface tension liquid-gas (278.99 K, w1 = 0.5617) of 8.35 ± 0.17 mN/m and a surface tension liquid-gas (279.15 K, w1 = 0.2593) of 9.5 ± 0.17 mN/m. For the same molecule, the surface tension liquid-gas (279.35 K, w1 = 0.7463) was 7.755 ± 0.17 mN/m, the surface tension liquid-gas (281.43 K, w1 = 0.2589) was 9.23 ± 0.17 mN/m and the surface tension liquid-gas (281.48 K, w1 = 0.5612) was 8 ± 0.17 mN/m. It also gave a surface tension liquid-gas (281.54 K, w1 = 0.7458) of 7.46 ± 0.17 mN/m, a surface tension liquid-gas (282.89 K, w1 = 0.2586) of 9.01 ± 0.17 mN/m and a surface tension liquid-gas (283.35 K, w1 = 0.5608) of 7.755 ± 0.17 mN/m. It also gave a surface tension liquid-gas (283.39 K, w1 = 0.7453) of 7.25 ± 0.17 mN/m, a surface tension liquid-gas (285.2 K, w1 = 0.5604) of 7.465 ± 0.17 mN/m and a surface tension liquid-gas (285.24 K, w1 = 0.2581) of 8.695 ± 0.17 mN/m. For the same molecule, the surface tension liquid-gas (285.45 K, w1 = 0.7448) was 6.985 ± 0.17 mN/m, the surface tension liquid-gas (287.35 K, w1 = 0.5599) was 7.295 ± 0.17 mN/m and the surface tension liquid-gas (287.39 K, w1 = 0.7443) was 6.725 ± 0.17 mN/m. For the same molecule, the surface tension liquid-gas (287.4 K, w1 = 0.2577) was 8.415 ± 0.17 mN/m, the surface tension liquid-gas (289.05 K, w1 = 0.7438) was 6.5 ± 0.17 mN/m and the surface tension liquid-gas (289.29 K, w1 = 0.5595) was 7.115 ± 0.17 mN/m. For the same molecule, the surface tension liquid-gas (289.31 K, w1 = 0.2573) was 8.23 ± 0.17 mN/m, the surface tension liquid-gas (291.17 K, w1 = 0.7432) was 6.23 ± 0.17 mN/m and the surface tension liquid-gas (291.2 K, w1 = 0.5591) was 6.82 ± 0.17 mN/m. For the same molecule, the surface tension liquid-gas (291.37 K, w1 = 0.2569) was 8.03 ± 0.17 mN/m, the surface tension liquid-gas (293.21 K, w1 = 0.2565) was 7.725 ± 0.17 mN/m and the surface tension liquid-gas (293.45 K, w1 = 0.2564) was 7.57 ± 0.17 mN/m. The surface tension liquid-gas (293.49 K, w1 = 0.5585) was 6.47 ± 0.17 mN/m, the surface tension liquid-gas (293.71 K, w1 = 0.7425) was 5.82 ± 0.17 mN/m and the surface tension liquid-gas (295.16 K, w1 = 0.5582) was 6.13 ± 0.17 mN/m. It also gave a surface tension liquid-gas (295.56 K, w1 = 0.7419) of 5.58 ± 0.17 mN/m, a surface tension liquid-gas (295.58 K, w1 = 0.256) of 7.285 ± 0.17 mN/m and a surface tension liquid-gas (297.38 K, w1 = 0.2556) of 7.06 ± 0.17 mN/m. It also gave a surface tension liquid-gas (297.49 K, w1 = 0.7413) of 5.375 ± 0.17 mN/m, a surface tension liquid-gas (297.52 K, w1 = 0.5576) of 5.875 ± 0.17 mN/m and a surface tension liquid-gas (299.41 K, w1 = 0.7407) of 5.14 ± 0.17 mN/m. The surface tension liquid-gas (299.51 K, w1 = 0.5571) was 5.72 ± 0.17 mN/m, the surface tension liquid-gas (299.53 K, w1 = 0.2552) was 6.855 ± 0.17 mN/m and the surface tension liquid-gas (301.41 K, w1 = 0.7401) was 4.89 ± 0.17 mN/m. For the same molecule, the surface tension liquid-gas (301.53 K, w1 = 0.2547) was 6.585 ± 0.17 mN/m, the surface tension liquid-gas (302.95 K, w1 = 0.5563) was 5.335 ± 0.17 mN/m and the surface tension liquid-gas (303.65 K, w1 = 0.7394) was 4.63 ± 0.17 mN/m. It also gave a surface tension liquid-gas (303.66 K, w1 = 0.2542) of 6.325 ± 0.17 mN/m, a surface tension liquid-gas (305.21 K, w1 = 0.5557) of 5.055 ± 0.17 mN/m and a surface tension liquid-gas (305.38 K, w1 = 0.7388) of 4.425 ± 0.17 mN/m. For the same molecule, the surface tension liquid-gas (305.56 K, w1 = 0.2538) was 6.13 ± 0.17 mN/m, the surface tension liquid-gas (307.4 K, w1 = 0.5552) was 4.755 ± 0.17 mN/m and the surface tension liquid-gas (307.46 K, w1 = 0.2534) was 5.835 ± 0.17 mN/m. It also gave a surface tension liquid-gas (307.74 K, w1 = 0.738) of 4.17 ± 0.17 mN/m, a surface tension liquid-gas (309.3 K, w1 = 0.5547) of 4.56 ± 0.17 mN/m and a surface tension liquid-gas (309.6 K, w1 = 0.2529) of 5.585 ± 0.17 mN/m. It also gave a surface tension liquid-gas (309.65 K, w1 = 0.7373) of 3.97 ± 0.17 mN/m, a surface tension liquid-gas (311.25 K, w1 = 0.2525) of 5.385 ± 0.17 mN/m and a surface tension liquid-gas (311.41 K, w1 = 0.5541) of 4.29 ± 0.17 mN/m. For the same molecule, the surface tension liquid-gas (311.44 K, w1 = 0.7367) was 3.755 ± 0.17 mN/m, the surface tension liquid-gas (313.47 K, w1 = 0.736) was 3.5 ± 0.17 mN/m and the surface tension liquid-gas (313.55 K, w1 = 0.252) was 5.095 ± 0.17 mN/m. The surface tension liquid-gas (313.61 K, w1 = 0.5536) was 4.03 ± 0.17 mN/m, the surface tension liquid-gas (315.3 K, w1 = 0.5531) was 3.825 ± 0.17 mN/m and the surface tension liquid-gas (315.54 K, w1 = 0.7352) was 3.3 ± 0.17 mN/m. The surface tension liquid-gas (315.59 K, w1 = 0.2515) was 4.85 ± 0.17 mN/m, the surface tension liquid-gas (317.36 K, w1 = 0.2511) was 4.66 ± 0.17 mN/m and the surface tension liquid-gas (317.41 K, w1 = 0.5525) was 3.605 ± 0.17 mN/m. The surface tension liquid-gas (317.57 K, w1 = 0.7345) was 3.11 ± 0.17 mN/m, the surface tension liquid-gas (319.33 K, w1 = 0.552) was 3.415 ± 0.17 mN/m and the surface tension liquid-gas (319.39 K, w1 = 0.7338) was 2.875 ± 0.17 mN/m. It also gave a surface tension liquid-gas (319.66 K, w1 = 0.2506) of 4.41 ± 0.17 mN/m, a surface tension liquid-gas (321.23 K, w1 = 0.7331) of 2.685 ± 0.17 mN/m and a surface tension liquid-gas (321.33 K, w1 = 0.5515) of 3.18 ± 0.17 mN/m. It also gave a surface tension liquid-gas (322.01 K, w1 = 0.25) of 4.12 ± 0.17 mN/m, a surface tension liquid-gas (323.26 K, w1 = 0.2497) of 4 ± 0.17 mN/m and a surface tension liquid-gas (323.33 K, w1 = 0.7323) of 2.44 ± 0.17 mN/m. For the same molecule, the surface tension liquid-gas (323.42 K, w1 = 0.5509) was 2.925 ± 0.17 mN/m, the surface tension liquid-gas (325.17 K, w1 = 0.5505) was 2.75 ± 0.17 mN/m and the surface tension liquid-gas (325.28 K, w1 = 0.7315) was 2.25 ± 0.17 mN/m. For the same molecule, the surface tension liquid-gas (325.69 K, w1 = 0.2492) was 3.67 ± 0.17 mN/m, the surface tension liquid-gas (327.33 K, w1 = 0.2488) was 3.545 ± 0.17 mN/m and the surface tension liquid-gas (327.36 K, w1 = 0.7306) was 2.065 ± 0.17 mN/m. The surface tension liquid-gas (327.38 K, w1 = 0.5498) was 2.53 ± 0.17 mN/m, the surface tension liquid-gas (329.42 K, w1 = 0.7298) was 1.81 ± 0.17 mN/m and the surface tension liquid-gas (329.44 K, w1 = 0.5493) was 2.32 ± 0.17 mN/m.
